Here are results for 17 compounds from patent US8906952B2, “Indole derivative or pharmaceutically acceptable salt thereof, preparation method thereof, and pharmaceutical composition for preventing or treating metabolic diseases containing same as active ingredient” (Korea Research Institute of Bioscience and Biotechnology, priority 2011, dated 2014).

What all share (type): biochemical
Assay [1] concerns the target T1, human DGAT2 (Homo sapiens, UniProt Q96PD7).
T1 construct: made in house; host or cells: sf9 insect cells
T1 sequence (Q96PD7 1-388): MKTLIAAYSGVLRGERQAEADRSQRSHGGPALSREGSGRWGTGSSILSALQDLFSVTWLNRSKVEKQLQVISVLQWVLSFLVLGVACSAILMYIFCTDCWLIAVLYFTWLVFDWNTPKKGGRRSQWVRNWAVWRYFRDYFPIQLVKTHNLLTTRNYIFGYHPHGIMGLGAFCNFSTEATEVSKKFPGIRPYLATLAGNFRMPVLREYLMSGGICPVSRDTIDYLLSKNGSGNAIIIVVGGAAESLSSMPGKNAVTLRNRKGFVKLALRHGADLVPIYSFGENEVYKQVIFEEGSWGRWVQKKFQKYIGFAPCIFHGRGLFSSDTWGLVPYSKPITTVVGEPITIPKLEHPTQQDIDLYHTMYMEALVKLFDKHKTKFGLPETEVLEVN
Kind of assay: DGAT enzyme inhibition test, hDGAT2 enzyme from sf9 insect cells (DGAT2 selectivity). The text has this:
(§1) To investigate inhibitory effect of the compounds of Examples 1-33 against DGAT enzyme activity, DGAT enzyme inhibition and DGAT2 selectivity were investigated using zymogen including:
(§2) 1) hDGAT1 and hDGAT2 enzymes, derived from insect cell overexpressing human DGAT1 and DGAT2 (‘sf9’), respectively,
(§3) To be specific, for the purpose of measuring human-derived DGAT enzyme inhibitory activity, using the zymogen, including enzymes derived from insect cell overexpressing human DGAT1 and DGAT2 (‘sf9’), microsomal protein isolated from human duodenal adenocarcinoma (‘Hutu 80’), and microsomal protein isolated from rat, and according to Coleman et al., (Methods Enzymol., 98-103, 1992), and substrate including 1,2-diacylglycerol(Sigma, D0138) and [^14C]palmitoyl-CoA (Amersham, CFA583), the amount of radiation of [^14C]triacylglycerol produced after enzymatic reaction was measured.
(§4) To be more specific, to the reaction solution containing 175 mM Tris-HCl (pH 8.0), 20 μl bovine serum albumin (10 mg/ml), 100 mM magnesium chloride, 30 μM [^14C]palmitoyl CoA (0.02 μCi, Amersham) and 200 μM 1,2-dioleoylglycerol, reagent dissolved in dimethylsulfoxide (10.0 μl) was added. After introducing 100 to 200 μg isolated microsomal protein and allowing the same to react at 25° C. for 10 min, the reaction was stopped by adding 1.5 ml stop solution (2-propanol:heptane:water=80:20:2, v:v:v). To isolate the product of the reaction (i.e., [^14C]triacylglycerol), 1 ml heptane and 0.5 ml distilled water were added and then decocted. After taking 1 ml supernatant, 2 ml alkaline ethanol solution (ethanol:0.5 N sodium hydroxide:water=50:10:40, v:v:v) were added and then decocted. After taking 0.65 ml supernatant from the decoction, the amount of radiation was measured with liquid scintillation counter (LSC). The DGAT inhibitory activity was calculated with Mathematical Expression 1 below:
(§5) T denotes cpm of experimental group in which the enzymatic reaction solution was treated with the sample,
(§6) C denotes cpm of control group in which the enzymatic reaction solution was not treated with the sample, and
(§7) B denotes cpm of control group treated with the sample without zymogen.

Assay [2] deals with T2, human DGAT1 (Homo sapiens, UniProt O75907).
T2 construct: made in house; host or cells: sf9 insect cells
T2 sequence (O75907 1-488): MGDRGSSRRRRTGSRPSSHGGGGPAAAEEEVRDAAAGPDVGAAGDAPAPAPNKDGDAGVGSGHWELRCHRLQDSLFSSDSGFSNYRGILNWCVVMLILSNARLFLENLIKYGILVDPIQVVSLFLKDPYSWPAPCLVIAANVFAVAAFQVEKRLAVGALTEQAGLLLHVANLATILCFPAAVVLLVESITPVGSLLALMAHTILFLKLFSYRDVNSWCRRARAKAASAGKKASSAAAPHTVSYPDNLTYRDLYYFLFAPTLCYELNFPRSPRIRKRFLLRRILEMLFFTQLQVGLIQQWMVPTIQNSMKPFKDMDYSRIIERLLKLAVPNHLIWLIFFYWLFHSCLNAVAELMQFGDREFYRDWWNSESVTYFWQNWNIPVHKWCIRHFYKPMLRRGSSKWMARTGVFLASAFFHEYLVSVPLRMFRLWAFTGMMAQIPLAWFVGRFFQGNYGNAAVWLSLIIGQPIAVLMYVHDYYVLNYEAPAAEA
Kind of assay: DGAT enzyme inhibition test, hDGAT1 enzyme from sf9 insect cells. The settings on record: enzyme from sf9 cells overexpressing hDGAT1; read-out: hDGAT-1 (sf9) IC50.
Text: as §1, §2, §3, §4, §5, §6, §7

The target in assay [3] is T3, DGAT-1 (rat liver) (Rattus norvegicus, UniProt Q9ERM3).
T3 construct: microsomal protein isolated from rat; from tissue; host or cells: rat liver microsomes
T3 sequence (Q9ERM3 1-498): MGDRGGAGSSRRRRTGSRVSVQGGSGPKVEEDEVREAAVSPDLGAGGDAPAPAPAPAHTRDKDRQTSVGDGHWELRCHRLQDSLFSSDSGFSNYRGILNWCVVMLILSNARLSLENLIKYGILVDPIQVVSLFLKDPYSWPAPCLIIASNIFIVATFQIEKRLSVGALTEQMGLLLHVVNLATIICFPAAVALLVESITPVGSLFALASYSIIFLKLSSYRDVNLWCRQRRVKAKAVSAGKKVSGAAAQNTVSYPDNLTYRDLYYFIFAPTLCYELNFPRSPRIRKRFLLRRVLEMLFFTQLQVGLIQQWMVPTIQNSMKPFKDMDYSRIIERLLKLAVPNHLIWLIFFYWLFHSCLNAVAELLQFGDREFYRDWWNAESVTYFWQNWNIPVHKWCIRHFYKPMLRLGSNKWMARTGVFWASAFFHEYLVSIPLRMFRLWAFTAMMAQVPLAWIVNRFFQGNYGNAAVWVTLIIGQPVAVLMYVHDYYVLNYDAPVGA
Description: DGAT enzyme inhibition test, rat liver-derived DGAT enzyme. The note with it: rat liver microsomal protein.
Text: as §1
3) rat liver-derived DGAT enzyme.
as §3, §4, §5, §6, §7
Background: Liver microsomes are a subcellular fraction often used to study metabolism.

Setting [4] is: 10 μM, enzyme from sf9 cells overexpressing hDGAT2, read-out: hDGAT-2 (sf9) inhibition rate(%)at 10 μM.
[5] abbreviates: concentration of 10 μM, read-out: hDGAT2 inhibition.

Molecules are shown by their SMILES. Like-named read-outs stand apart in the source and are kept apart here.

For `CC(C)N(NC(=O)c1ccccn1)C(=O)/C=C/c1cn(C(=O)OC(C)(C)C)c2ccccc12` [Example 2, (E)-tert-butyl 3-(3-(1-isopropyl-2-picolinoylhydrazinyl)-3-oxoprop-1-enyl)-1H-indole-1-carboxylate], the inhibition – broadly, the percentage by which the read-out fell short of the control – at 10 µM in assay [1] (setting [4]) is less than 0%. The figures for the IC50 in assay [2] and in assay [3] were more than 100 µM and 7.6 µM, respectively.

As for `CC(C)N(NC(=O)c1ccc(Br)cc1)C(=O)/C=C/c1cn(C(=O)OC(C)(C)C)c2ccccc12` [Example 13, (E)-tert-butyl 3-(3-(2-(4-bromobenzoyl)-1-isopropylhydrazinyl)-3-oxoprop-1-enyl)-1H-indole-1-carboxylate], the inhibition at 10 µM in assay [1] (setting [4]) is 2.3%; in assay [1] (setting [5]), less than 11%. Moreover, the IC50 (in general, the concentration needed to halve the response being measured) in assay [2] came out at 20.4 µM; in assay [3], 9.1 µM.

As for `CC(C)N(NC(=O)c1ccccc1)C(=O)/C=C/c1cn(C)c2ccccc12` [Example 25], the inhibition at 10 µM in assay [1] (setting [4]) is less than 0%. In addition, the IC50 in assay [2] is 28.3 µM; in assay [3], 9.3 µM.

Consider `CC(C)N(NC(=O)c1cccc(OCCN2CCOCC2)c1)C(=O)/C=C/c1cn(C(=O)OC(C)(C)C)c2ccccc12` [Example 8, (E)-tert-butyl 3-(3-(1-isopropyl-2-(3-(2-morpholinoethoxy)benzoyl)hydrazinyl)-3-oxoprop-1-enyl)-1H-indole-1-carboxylate], for which the inhibition at 10 µM in assay [1] (setting [4]) was less than 0%. For the same compound, the half-inhibitory concentration (IC50) was more than 100 µM in assay [2] and 2.5 µM in assay [3].

For the compound `CC(C)N(NC(=O)c1ccccc1)C(=O)/C=C/c1cn(C(=O)OC(C)(C)C)c2ccccc12` [Example 1, (E)-tert-butyl 3-(3-(2-benzoyl-1-isopropylhydrazinyl)-3-oxoprop-1-enyl)-1H-indole-1-carboxylate], the inhibition at 10 µM in assay [1] (setting [4]) was 7.5%; in assay [1] (setting [5]) it was less than 11%. Moreover, the IC50 in assay [2] turned out to be 9.6 µM; in assay [3] it was 1.1 µM.

As to `CC(C)N(NC(=O)c1ccccc1)C(=O)/C=C/c1c[nH]c2ccccc12` [Example 22, (E)-N′-(3-(1H-indol-3-yl)acryloyl)-N′-isopropylbenzohydrazide], the inhibition at 10 µM in assay [1] (setting [4]) was less than 0%. For the same compound, the IC50 in assay [2] was more than 100 µM; in assay [3], 33 µM.

Turning to `CC(C)N(NC(=O)c1ccccc1)C(=O)/C=C/c1cn(C(=O)CC(C)(C)C)c2ccccc12` [Example 33, (E)-N′-(3-(1-(3,3-dimethylbutanoyl)-1H-indol-3-yl)acryloyl)-N′-isopropylbenzohydrazide], the values for the inhibition at 10 µM in assay [1] (setting [4]) and in assay [1] (setting [5]) were less than 0% and less than 11%, respectively. Besides, the IC50 in assay [2] worked out at 5.3 µM; in assay [3] it was 1.4 µM.

With `CC(C)(C)OC(=O)n1cc(/C=C/C(=O)NNC(=O)c2ccccc2)c2ccccc21` [Example 16, (E)-tert-butyl 3-(3-(2-benzoylhydrazinyl)-3-oxoprop-1-enyl)-1H-indole-1-carboxylate], the inhibition at 10 µM in assay [1] (setting [4]) was found to be 3.7%. Also, the IC50 was more than 100 µM in assay [2] and 26.3 µM in assay [3].

For the compound `CC(C)N(NC(=O)c1ccccc1)C(=O)/C=C/c1cn(Cc2ccccc2)c2ccccc12` [Example 26, (E)-N′-(3-(1-benzyl-1H-indol-3-yl)acryloyl)-N′-isopropylbenzohydrazide], the inhibition at 10 µM was 5% in assay [1] (setting [4]) and less than 11% in assay [1] (setting [5]). Also, the results for the IC50 in assay [2] and in assay [3] were 13.6 µM and 2.4 µM, respectively.

On to `COc1cccc(C(=O)NN(C(=O)/C=C/c2cn(C(=O)OC(C)(C)C)c3ccccc23)C(C)C)c1` [Example 6, (E)-tert-butyl 3-(3-(1-isopropyl-2-(3-methoxybenzoyl)hydrazinyl)-3-oxoprop-1-enyl)-1H-indole-1-carboxylate], for which, in assay [1] (setting [4]), the inhibition at 10 µM was found to be 0.3%. Also, the IC50 was more than 100 µM in assay [2] and 2.1 µM in assay [3].

`CC(C)N(NC(=O)c1ccccc1)C(=O)CCc1c[nH]c2ccccc12` [Example 23, N′-(3-(1H-indol-3-yl)propanoyl)-N′-isopropylbenzohydrazide]: in assay [1] (setting [4]), the inhibition at 10 µM is less than 0%. Besides, the IC50 turned out to be 95.1 µM in assay [2] and 31.4 µM in assay [3].

For the compound `CC(C)N(NC(=O)c1cccnc1)C(=O)/C=C/c1cn(C(=O)OC(C)(C)C)c2ccccc12` [Example 3, (E)-tert-butyl 3-(3-(1-isopropyl-2-nicotinoylhydrazinyl)-3-oxoprop-1-enyl)-1H-indole-1-carboxylate], the inhibition at 10 µM in assay [1] (setting [4]) was less than 0%. Also, the IC50 was more than 100 µM in assay [2] and 3.9 µM in assay [3].

On to `CC(C)N(NC(=O)c1ccc(O)cc1)C(=O)/C=C/c1cn(C(=O)OC(C)(C)C)c2ccccc12` [Example 5, (E)-tert-butyl 3-(3-(2-(4-hydroxybenzoyl)-1-isopropylhydrazinyl)-3-oxoprop-1-enyl)-1H-indole-1-carboxylate], for which the inhibition at 10 µM is less than 0% in assay [1] (setting [4]) and less than 11% in assay [1] (setting [5]). Further, the IC50 in assay [2] is 22.5 µM; in assay [3] it was 16.3 µM.

With `CC(C)(C)OC(=O)n1cc(/C=C/C(=O)NNS(=O)(=O)c2ccccc2)c2ccccc21` [Example 17, (E)-tert-butyl 3-(3-oxo-3-(2-(phenylsulfonyl)hydrazinyl)prop-1-enyl)-1H-indole-1-carboxylate], the inhibition at 10 µM in assay [1] (setting [4]) was less than 0%. Besides, the results for the IC50 in assay [2] and in assay [3] were more than 100 µM and 83.6 µM, respectively.

Turning to `CC(C)N(NC(=O)c1ccccc1)C(=O)/C=C/c1cn(C2CC2)c2ccccc12` [Example 29, (E)-N′-(3-(1-cyclopropyl-1H-indol-3-yl)acryloyl)-N′-isopropylbenzohydrazide], the results for the inhibition at 10 µM in assay [1] (setting [4]) and in assay [1] (setting [5]) were less than 0% and less than 11%, respectively. Besides, the IC50 in assay [2] turned out to be 24.6 µM; in assay [3], 1.9 µM.

Consider `CC(C)N(NC(=O)c1ccccc1)C(=O)CCc1cn(Cc2ccccc2)c2ccccc12` [Example 21, N′-(3-(1-benzyl-1H-indol-3-yl)propanoyl)-N′-isopropylbenzohydrazide], for which the inhibition at 10 µM in assay [1] (setting [4]) was 1.3%. The IC50 in assay [2] is more than 100 µM; in assay [3], 29.1 µM.

As to `CC(C)N(NC(=O)c1ccc(Cl)cc1)C(=O)/C=C/c1cn(C(=O)OC(C)(C)C)c2ccccc12` [Example 14, (E)-tert-butyl 3-(3-(2-(4-chlorobenzoyl)-1-isopropylhydrazinyl)-3-oxoprop-1-enyl)-1H-indole-1-carboxylate], the inhibition at 10 µM was less than 0% in assay [1] (setting [4]) and less than 11% in assay [1] (setting [5]). The IC50 in assay [2] was determined as 8.8 µM; in assay [3], 2.8 µM.
